The values below come from patent publication US4638047A, “Enzyme inhibition” (priority 1983, dated 1987).

The term Ki denotes the dissociation constant of the complex between target and ligand, obtained from inhibition or displacement. A higher Ki goes with lower affinity.

The target in series [1] is T1, human thrombin (Homo sapiens, UniProt P00734).
T1 construct: forms a lipoprotein complex with prothrombin (factor II) and cleaves it to form thrombin (factor IIa) itself
Description: Inhibition of human thrombin hydrolysing the chromogenic substrate S-2238 (Ki by Dixon plot). Type of series: biochemical. How it is done: (a) Inhibition of human thrombin hydrolysing the chromogenic substrate S-2238 (for details of the method, see M. F. Scully and V. V. Kakkar, Clin. Chim. Acta 1977.79.595). Series of measurements were carried out using a number of different inhibitor concentrations and at least two different substrate concentrations. The inhibitory constant Ki was determined graphically, using a Dixon plot (M. Dixon, Biochem. J. 1953.55.170)

Series [2] can be described thus: In vivo half life in plasma.
Description: (§1) These tests were carried out in rabbits, using between 0.1-4 mg/Kg of the inhibitor and comparing the KCCT or the thrombin clotting time in blood samples taken before and at various time intervals after the administration of inhibitors.
The conditions of series [3]: rabbit.
Description: as §1

Read-outs that look alike come from different tables or passages of the source. Residues, ends and D or L forms follow the SMILES beside them.

Regarding `CC(C)(C)OC(=O)N[C@H](Cc1ccccc1)C(=O)N1CCC[C@H]1C(=O)N[C@@H](CCCNC(=N)N)CNCC(=O)N1CCC[C@H]1C(=O)O` [Example H-172], in series [1], affinity was put at a Ki of 112 µM.

Turning to `CCNC(=O)[C@@H]1CCCN1C(=O)CCC(=O)[C@@H](CCCNC(=N)N)NC(=O)[C@@H]1CCCN1C(=O)[C@@H](Cc1ccccc1)NC(=O)OC(C)(C)C` [Example H-170], in series [1], the Ki came out at 68 µM.

For heparin, the “in vivo half life in plasma” value in series [2] turned out to be 15 min.

The molecule `CCNC(=O)[C@@H](NC(=O)[C@H](CCCNC(=N)N)NC(=O)[C@@H]1CCCN1C(=O)CCC(=O)[C@H](CCCNC(=N)N)NC(=O)[C@@H]1CCCN1C(=O)[C@H](N)Cc1ccccc1)C(C)C` [Example H-200] (HELM PEPTIDE1{[dF].P.[N=C(N)NCCC[C@H](N[*:1])C(=O)CCC(=O)[*:2]].P.R.V.[CCN[*:1]]}$$$$V2.0) showed a Ki in series [1] of 3 µM.

Take `CCNC(=O)[C@@H]1CCCN1C(=O)CCC(=O)[C@H](CCCNC(=N)N)NC(=O)[C@@H]1CCCN1C(=O)[C@H](N)Cc1ccccc1` [Example H-179]: affinity in series [1] was put at a Ki of 6 µM. In addition, the “in vivo half life in plasma” value in series [3] was 18 min.
